From US5550110A, “Endothelin Antagonists II” (Warner-Lambert Company, priority 1994, dated 1996)
Peptide text beside a SMILES is read from it.

How the values were obtained:
[1] = target: T1, rat recombinant ETB receptor (CHO cells) (Rattus norvegicus, UniProt P21451); assay: Inhibition of ET-1 stimulated arachidonic acid release (AAR-B); assay type: cell-based; settings: ET-1 0.3 nM
T1 construct: expressed in transfected cells; host or cells: CHO cells
T1 sequence (P21451 27-442): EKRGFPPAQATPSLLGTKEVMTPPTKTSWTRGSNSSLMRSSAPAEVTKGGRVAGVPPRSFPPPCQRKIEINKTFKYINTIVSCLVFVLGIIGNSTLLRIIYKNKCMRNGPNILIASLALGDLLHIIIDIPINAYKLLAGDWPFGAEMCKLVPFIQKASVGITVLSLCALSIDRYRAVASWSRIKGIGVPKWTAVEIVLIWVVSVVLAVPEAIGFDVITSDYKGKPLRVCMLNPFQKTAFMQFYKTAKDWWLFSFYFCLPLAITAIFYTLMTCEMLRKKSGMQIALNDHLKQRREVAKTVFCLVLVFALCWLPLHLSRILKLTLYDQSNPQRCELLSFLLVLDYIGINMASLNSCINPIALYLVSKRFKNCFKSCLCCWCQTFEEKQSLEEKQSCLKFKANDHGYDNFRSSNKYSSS
Experimental: In Vitro Inhibition of ET-1 Stimulated Arachidonic Acid Release in Cultured Rabbit Vascular Smooth Muscle Cells (AAR-A) or CHO Cells Expressing Rat Recombinant ETB Receptor (AAR-B) by Compounds of Formula I
Antagonist activity is measured by the ability of added compounds to reduce endothelin-stimulated arachidonic acid release in cultured vascular smooth muscle cells as arachidonic acid release (AAR). [^3 H] Arachidonic Acid Loading Media (LM) is DME/F12+0.5% fetal calf serum (FCS)×0.25 mCi/mL [^3 H] arachidonic acid (Amersham). Confluent monolayers of cultured rabbit renal artery vascular smooth muscle cells (AAR-A) or CHO cells expressing rat recombinant ETB receptor (AAR-B) were incubated in 0.5 mL of the LM over 18 hours, at 37° C., in 5% CO2. The LM was aspirated and the cells were washed once with the assay buffer (Hank's balanced salt solution [BSS]+10 mM HEPES+fatty acid-free BSA (1 mg/mL)), and incubated for 5 minutes with 1 mL of the prewarmed assay buffer. This solution was aspirated, followed by an additional 1 mL of prewarmed assay buffer, and further incubated for another 5 minutes. A final 5-minute incubation was carried out in a similar manner. The same procedure was repeated with the inclusion of 10 μL of the test compound (1 nM to 1 μM) and 10 μL ET-1 (0.3 nM) and the incubation was extended for 30 minutes. This solution was then collected, […] of scintillation cocktail was added, and the amount of [^3 H] arachidonic acid was determined in a liquid scintillation counter.

[2] = test system: endothelin receptor (ETA), rabbit renal artery vascular smooth muscle cells; assay: Endothelin Receptor Binding Assay-A (ERBA-A), intact cell binding of [125I]-ET-1; settings: [125I]-ET-1 25 pM
Experimental: The compounds of Formula I are valuable antagonists of endothelin. […] Thus, the compounds of Formula I were tested for their ability to inhibit [^125 I]-ET-1([^125 I]-Endothelin-1) binding in a receptor assay according to the following procedures: Endothelin Receptor Binding Assay-A (ERBA-A) Intact Cell Binding of [^125 I]-ET-1 The cells used were rabbit renal artery vascular smooth muscle cells grown in a 48-well dish (1 cm^2) (confluent cells). The assay buffer was a medium 199 containing Hanks salts and 25 mM Hepes buffer (Gibco 380-2350AJ), supplemented with penicillin/streptomycin/fungizone (0.5%) and bovine serum albumin (1 mg/mL). Amersham radioiodinated endothelin-1 [^125 I]-ET-1 was used at final concentration of 20,000 cpm/0.25 mL (25 pM). […] Second, remove the assay buffers, place the dish on ice, and add 150 μL of cold assay buffer described above to each well. Third, add […] each of cold [^125 I]-ET-1 and competing ligand to the solution (at the same time if possible). Next, place dish in a 37° C. water bath for about 2 hours and gently agitate the dish every 15 minutes. Discard the radioactive incubation mixture in the sink and wash wells 3 times with 1 mL of cold phosphate buffered saline. Last, add […] of 0.25 molar sodium hydroxide, agitate for 1 hour on a rotator, and then transfer the sodium hydroxide extract to gamma counting tubes and count the radioactivity.

[3] = test system: ET-1 pressor activity; assay: Conscious rat duration of action study; assay type: in vivo; settings: 10 mg/kg IV; for inhibition of ET-1 pressor activity: ganglionically blocked conscious rats, n=4
From the text: Conscious Rat Duration of Action Study
Nonfasted rats (350-500 g) were used and anesthetized with Metofane (methoxyflurane) by inhalation. The rats were jugular cannulated (PE50) for IV administration of mecamylamine-HC1 (MEC), ET-1 and Ac-D-Bhg-Leu-Asp-Ile-N-MeIle-Trp (Example 19) Seq ID No: 20, and carotid cannulated (PE50) for arterial blood pressure measurements. Rats were attached to a swivel for freedom of movement, and food and water were available ad lib. Prior to the experiment, the animals were allowed to recover from anesthesia for 60 minutes. […] Ac-D-Bhg-Leu-Asp-Ile-N-MeIle-TrP (Example 19) Seq ID No: 20 was administered at a dose of 10 mg/kg IV.

Row | SMILES | IC50 [1] | IC50 [2] | duration of activity in vivo [3] | inhibition of ET-1 pressor activity ([3]; 5 minutes postdose) | inhibition of ET-1 pressor activity ([3]; 30 minutes postdose)
1 | CC[C@H](C)[C@H](NC(=O)[C@H](CC(=O)O)NC(=O)[C@H](CC(C)C)NC(=O)[C@H](NC(C)=O)C1c2ccccc2CCc2ccccc21)C(=O)N[C@H](C(=O)N[C@@H](Cc1c[nH]c2ccccc12)C(=O)O)[C@@H](C)CC [Example 1, Ac-D-Bhg-Leu-Asp-Ile-Ile-Trp] (HELM PEPTIDE1{[ac].[O=C([C@H](N[*:1])C1c2ccccc2CCc2ccccc21)[*:2]].L.D.I.I.W}$$$$V2.0) | 20 nM |  |  |  | 
2 | CC[C@H](C)[C@H](NC(=O)[C@H](CC(=O)O)NC(=O)[C@H](CC(C)C)NC(=O)[C@H](NC(C)=O)C1c2ccccc2CCc2ccccc21)C(=O)N(C)[C@H](C(=O)N[C@@H](Cc1c[nH]c2ccccc12)C(=O)O)[C@@H](C)CC [Example 19, Ac-D-Bhg-Leu-Asp-Ile-N-MeIle-Trp] (HELM PEPTIDE1{[ac].[O=C([C@H](N[*:1])C1c2ccccc2CCc2ccccc21)[*:2]].L.D.I.[meI].W}$$$$V2.0) |  | 0.5 nM | prolonged activity | 81% | 58%
